The values below come from patent publication US20260262647A1, “Synergistic Compositions Containing Guanidine” (Thor GmbH, priority 2023, published 2026).

Format in all cases: cell-based
The test system of one assay is bacteria mixture A. Nature of the assay: Emulsion paint inoculated three times with bacteria mixture A, live bacteria count CFU/g. Particulars: for CFU/g after inoculation: emulsion paint, 7 d. An excerpt:
In example 34, the synergistic interaction between guanidine and a zinc compound (zinc oxide) with respect to microbial infestation was examined in an emulsion paint by adding particular amounts of guanidine in the form of guanidine hydrochloride and a zinc compound in the form of zinc oxide, and tested for stability to microbial infestation. The paint tested was an emulsion paint based on styrene-acrylate binder (PVK 77%, pH 8.8) for indoor use, produced in the laboratory, without addition of the usual preservatives.
The samples were inoculated repeatedly, three times in total, with a bacterial cell suspension of the following composition (2% v/w).
• Alcaligenes faecalis NCIMB 13145 • Escherichia coli DSM 13631 • Burkholderia cepacia DSM 9241 • Staphylococcus aureus DSM 799 • Pseudomonas aeruginosa DSM 50071 • Pseudomonas putida DSM 13624
The cell suspension of the bacteria mixture A was produced by growing the individual bacteria at 30° C. for 24 h in liquid culture on a shaker. The growth medium used for the bacteria was Müller-Hinton liquid medium. After growing, the individual liquid cultures were centrifuged, and the cells were resuspended in physiological saline solution. In order to adjust the mixture to a total cell count of 10^9/ml, the individual bacteria suspensions, if necessary, were diluted accordingly before being combined with saline solution. The cell count of the inoculum was determined in each case by chamber counting.
After each inoculation and after incubation at 30° C. for 7 days, microbial infestation was evaluated in the samples by determining the live bacteria count per g of paint (colony-forming units, CFU/g). The CFU/g was determined each time by taking an aliquot (1 g) from the previously homogenized sample and running a serial decadic dilution series in physiological saline solution (0.9% NaCl) by streaking on tryptic soy agar, followed by incubation of the agar plates at 30° C. for 48 h.

Assay [1] concerns Pseudomonas putida DSM 115323. Put plainly: Minimum inhibitory concentrations and synergy index in Müller-Hinton broth. The procedure:
(§1) Test organisms used were Gram-negative bacterial species from the group of pseudomonads, Pseudomonas putida DSM 115323 and Pseudomonas spec. DSM 115322. For this purpose, mixtures with different concentrations of the respective active substances were prepared and tested for their effect on the pseudomonads. The test was run in Müller-Hinton broth MHB with a cell density of 10^6 microbes per ml. When organic acids are used as a combination partner with the guanidine, MHB was adjusted to pH 5.5.
(§2) The incubation was run in microplates at 30° C. for 48 hours. After 48 hours, the batches were evaluated for turbidity resulting from growth, and optical density was additionally determined photometrically. In this way, the minimum inhibitory concentrations (MICs) of the two actives were determined individually and in combination.
(§3) The calculation was done according to the standard method of F. C. Kull et al., Applied Microbiology, vol. 9 (1961), p. 538.
(§4) This involves calculating the synergy index (SI) by the following formula:
(§5) [formula] • Qa=concentration of component A in the A+B mixture • QA=concentration of component A as the sole biocide • Qb=concentration of component B in the A+B mixture • QB=concentration of component B as the sole biocide
(§6) If the synergy index is greater than 1, this means that there is antagonism. If the synergy index assumes the value 1, this means that the effect of the two biocides/compounds is additive. If the synergy index assumes a value of less than 1, this means that there is synergism between the two biocides/compounds.

The test system of assay [2] is yeast mixture. Put plainly: All-purpose detergent inoculated once with yeast mixture, semiquantitative growth evaluation. The arrangement: key: 0: No growth; Minimal growth, 1 to 10 colonies visible over the entire streak; 2: Light growth, maximum 100 colonies; Moderate growth, maximum 300 to 400 colonies; Uniform growth, >400 colonies, single colonies still clearly recognizable; 5: Heavy growth, too many colonies to count, but no growth over the entire streak; 6: Full growth, barely any single colonies still apparent, growth over the entire streak. The note with it: Example 38, all-purpose detergent, +100 ppm BIT. An excerpt:
(§7) In examples 35 to 38 below, synergistic interaction between guanidine and antimicrobial substances with respect to microbial infestation was studied using an emulsion paint and a laundry detergent or cleaning composition by adding particular amounts of guanidine salts and isothiazolinones and examining their stability against microbial infestation: […] The laundry detergent was a heavy-duty laundry detergent without preservatives (pH 8.1), and the cleaning composition was an all-purpose detergent without preservatives (pH 7.6), each likewise made in the laboratory, without addition of the otherwise usual conventional preservatives. To each paint was added—individually and in combination—particular concentrations of guanidinium hydrochloride, benzisothiazolinone (BIT), and a mixture of chloromethylisothiazolinone (CIT) and methylisothiazolinone (MIT). The laundry detergent and the cleaning composition were admixed with particular concentrations of guanidinium hydrochloride and benzisothiazolinone (BIT). The resultant batches of the paint thus prepared were inoculated with a mixture of different bacteria species (bacteria mixture B); the batches of the laundry detergent and cleaning compositions thus prepared were inoculated with a yeast mixture. • Pichia manshurica DSM 12249 • Rhodotorula mucilaginosa DSM 12248 • Candida boidinii DSM 13622 • Candida albicans DSM 1386 […] Further steps for establishment of a cell count of the inoculum suspension of 10^8/ml were effected analogously to the production of the bacteria suspension. […] The streaked agar plates were then incubated at 30° C. for 48 hours (bacteria) or at 25° C. for 72 hours (yeasts). After incubation, the bacterial or yeast colonies that have grown on the agar plates were visually evaluated and quantified according to the following scheme: [table]

Assay [3] deals with Pseudomonas spec. DSM 115322. Put plainly: Minimum inhibitory concentrations and synergy index in Müller-Hinton broth. The procedure: as §1, §2, §3, §4, §5, §6
Assay [4] deals with yeast mixture. Nature of the assay: Laundry detergent inoculated once with yeast mixture, semiquantitative growth evaluation. The arrangement: key: 0: No growth; Minimal growth, 1 to 10 colonies visible over the entire streak; 2: Light growth, maximum 100 colonies; Moderate growth, maximum 300 to 400 colonies; Uniform growth, >400 colonies, single colonies still clearly recognizable; 5: Heavy growth, too many colonies to count, but no growth over the entire streak; 6: Full growth, barely any single colonies still apparent, growth over the entire streak. Particulars: Example 37, laundry detergent, +100 ppm BIT.
Source text: as §7

In the next assay the test system is bacteria mixture B. Nature of the assay: Emulsion paint inoculated once with bacteria mixture B, semiquantitative growth evaluation. Further details: key: 0: No growth; Minimal growth, 1 to 10 colonies visible over the entire streak; 2: Light growth, maximum 100 colonies; Moderate growth, maximum 300 to 400 colonies; Uniform growth, >400 colonies, single colonies still clearly recognizable; 5: Heavy growth, too many colonies to count, but no growth over the entire streak; 6: Full growth, barely any single colonies still apparent, growth over the entire streak. The note with it: Example 35, emulsion paint, +500 ppm BIT. An excerpt: In examples 35 to 38 below, synergistic interaction between guanidine and antimicrobial substances with respect to microbial infestation was studied using an emulsion paint and a laundry detergent or cleaning composition by adding particular amounts of guanidine salts and isothiazolinones and examining their stability against microbial infestation: […] The laundry detergent was a heavy-duty laundry detergent without preservatives (pH 8.1), and the cleaning composition was an all-purpose detergent without preservatives (pH 7.6), each likewise made in the laboratory, without addition of the otherwise usual conventional preservatives. To each paint was added—individually and in combination—particular concentrations of guanidinium hydrochloride, benzisothiazolinone (BIT), and a mixture of chloromethylisothiazolinone (CIT) and methylisothiazolinone (MIT). The laundry detergent and the cleaning composition were admixed with particular concentrations of guanidinium hydrochloride and benzisothiazolinone (BIT). The resultant batches of the paint thus prepared were inoculated with a mixture of different bacteria species (bacteria mixture B); the batches of the laundry detergent and cleaning compositions thus prepared were inoculated with a yeast mixture. • Pseudomonas spp. (Pseudomonas oleovorans group) DSM 33933 • Pseudomonas aeruginosa DSM 33935 • Pseudomonas oleovorans DSM 33936 • Pseudomonas spec. DSM 33937 • Pseudomonas aeruginosa DSM 33938 […] The cell suspension of the bacteria mixture was produced by growing the individual bacteria at 30° C. for 24 h in liquid culture on a shaker. The growth medium used for the bacteria was Müller-Hinton liquid medium. After growing, the individual liquid cultures were centrifuged, and the cells were resuspended in physiological saline solution. […] The cell count of the inoculum was determined in each case by chamber counting. […] The streaked agar plates were then incubated at 30° C. for 48 hours (bacteria) or at 25° C. for 72 hours (yeasts). After incubation, the bacterial or yeast colonies that have grown on the agar plates were visually evaluated and quantified according to the following scheme: [table]

As to `[O]=[Zn]` [Zinc oxide, zinc oxide], the CFU/g after inoculation in the assay on bacteria mixture A (Zinc oxide 125 ppm (100 ppm Zn), 1. inoculation) is on record as 9.4 × 10^5 CFU/g; in the assay with bacteria mixture A (Zinc oxide 125 ppm (100 ppm Zn), 2. inoculation), >10^6 CFU/g; in the assay with bacteria mixture A (Zinc oxide 125 ppm (100 ppm Zn), 3. inoculation) it was >10^6 CFU/g; in the assay with bacteria mixture A (Zinc oxide 250 ppm (201 ppm Zn), 1. inoculation) it was 2.2 × 10^4 CFU/g; in the assay with bacteria mixture A (Zinc oxide 250 ppm (201 ppm Zn), 2. inoculation) it was >10^6 CFU/g; in the assay on bacteria mixture A (Zinc oxide 250 ppm (201 ppm Zn), 3. inoculation), >10^6 CFU/g. Also, the CFU/g after inoculation in the assay with bacteria mixture A (Zinc oxide 500 ppm (402 ppm Zn), 1. inoculation) is on record as 6.6 × 10^4 CFU/g; in the assay with bacteria mixture A (Zinc oxide 500 ppm (402 ppm Zn), 2. inoculation), >10^6 CFU/g; in the assay on bacteria mixture A (Zinc oxide 500 ppm (402 ppm Zn), 3. inoculation) it was >10^6 CFU/g; in the assay on bacteria mixture A (Zinc oxide 1000 ppm (803 ppm Zn), 1. inoculation) it was 9.9 × 10^3 CFU/g; in the assay with bacteria mixture A (Zinc oxide 1000 ppm (803 ppm Zn), 2. inoculation), >10^6 CFU/g; in the assay with bacteria mixture A (Zinc oxide 1000 ppm (803 ppm Zn), 3. inoculation), >10^6 CFU/g. The CFU/g after inoculation is listed as under 100 CFU/g in the assay with bacteria mixture A (Zinc oxide 2500 ppm (2009 ppm Zn), 1. inoculation); under 100 CFU/g in the assay on bacteria mixture A (Zinc oxide 2500 ppm (2009 ppm Zn), 2. inoculation); under 100 CFU/g in the assay on bacteria mixture A (Zinc oxide 2500 ppm (2009 ppm Zn), 3. inoculation). In addition, the “Synergy index Qa/QA + Qb/QB” value in the assay with bacteria mixture A (guanidine and zinc in emulsion paint, Qa, Qb) turned out to be 1.00. The “QB: Concentration of zinc as the sole agent that shows an endpoint” value in the assay with bacteria mixture A (zinc (added as zinc oxide) alone in emulsion paint, endpoint after 3 inoculations up to a maximum of 1000 CFU/g) is 2009 ppm.

With `Cn1sc(Cl)cc1=O` [CIT, 5-chloro-2-methyl-4-isothiazolin-3-one], in assay [1] (CIT alone, 48 hours at 30° C.), the “QB: Concentration of CIT as the sole agent that shows an endpoint” value was determined as 3.0 ppm. In addition, in assay [1] (guanidine and CIT, Qa, Qb), the “Synergy index Qa/QA + Qb/QB” value is on record as 1.00.

Regarding `O=c1[nH]sc2ccccc12` [BIT, 1,2-benzisothiazolin-3-one], the Yeast growth is reported as 6 with yeast mixture [2] (Day 1) and 4 (Uniform growth, >400 colonies, single colonies still clearly recognizable) with yeast mixture [2] (Day 3). The “QB: Concentration of BIT as the sole agent that shows an endpoint” value in assay [3] (BIT alone, 48 hours at 30° C.) was 300 ppm. Besides, the “Synergy index Qa/QA + Qb/QB” value in assay [3] (guanidine and BIT, Qa, Qb) is given as 1.00. Further, the Bacterial growth is recorded as 6 in the assay with yeast mixture [4] (Day 1); 4 (Uniform growth, >400 colonies, single colonies still clearly recognizable) in the assay with yeast mixture [4] (Day 3); 6 in the assay on bacteria mixture B (Day 1); 6 in the assay on bacteria mixture B (Day 6).
